Measurements from patent publication US9611261B2, “Perfluorinated cyclopropyl fused 1,3-oxazin-2-amine compounds as beta-secretase inhibitors and methods of use” (AMGEN INC., priority 2013, dated 2017).

Experiments:
[1] = target: Beta Secretase enzyme (BACE) (Homo sapiens (Human), UniProt P56817); test: In vitro enzymatic BACE FRET assay; type: biochemical; details: read-out: BACE1 Enzyme assay IC50
Method: In Vitro Enzymatic BACE FRET (Fluorescence Resonance Energy Transfer) Assay (Enzyme Assay Data in the Example Table I)
The assay buffer used in this screen is 0.05 M acetate, pH 4.2, 10% DMSO final, 100 uM genapol (which is a nonionic detergent, below its Critical Micelle Concentration). […] This assay is effectively started by the addition of FRET substrate (50 nM) and the combination is incubated for one hour. The FRET assay is terminated with by addition of Tris buffer, which raises the pH to neutrality, and the fluorescence is determined. The FRET substrate is a peptide with commercially available fluorophore and quencher, on opposite sides of the BACE cleavage site.

[2] = target: Recombinant Cat D (Cathepsin D) (Homo sapiens (Human), UniProt P07339); test: In vitro enzymatic Cathepsin D (Cat D) FRET assay; type: biochemical; details: read-out: CatD IC50
Method: Recombinant Cat D was expressed in CHO cells. The assay buffer for CathepsinD is 0.05 M citrate pH 3.5, 10% DMSO final, 5 mM CHAPS. […] The assays are effectively started by the addition of different FRET substrates (20 nM for Cat D) and the combination is incubated for one hour. The FRET assay is terminated with by addition of Tris buffer, which raises the pH to neutrality, and the fluorescence is determined. The FRET substrate is a peptide with commercially available fluorophore and quencher, on opposite sides of the BACE cleavage site. […] Proteolytic cleavage of the FRET substrate releases quenching of fluorescence (Cat D excitation 500 nm and emission 580 nm).

Aβ in lumbar CSF = details: healthy volunteers, cited from earlier work

Chain of Beta Secretase enzyme (BACE) (P56817 46-501, species assumed): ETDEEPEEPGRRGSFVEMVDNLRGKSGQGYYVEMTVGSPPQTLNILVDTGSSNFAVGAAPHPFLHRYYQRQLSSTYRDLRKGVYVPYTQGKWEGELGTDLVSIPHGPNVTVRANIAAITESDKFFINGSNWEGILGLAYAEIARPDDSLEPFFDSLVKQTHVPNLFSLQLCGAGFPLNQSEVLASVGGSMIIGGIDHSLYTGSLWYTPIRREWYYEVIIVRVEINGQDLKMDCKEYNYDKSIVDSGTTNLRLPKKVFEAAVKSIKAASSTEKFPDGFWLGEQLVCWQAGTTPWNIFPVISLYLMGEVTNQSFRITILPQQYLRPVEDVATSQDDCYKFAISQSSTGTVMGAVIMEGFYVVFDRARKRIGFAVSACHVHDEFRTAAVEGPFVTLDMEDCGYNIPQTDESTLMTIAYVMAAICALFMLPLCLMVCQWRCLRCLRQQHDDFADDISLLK
Chain of Recombinant Cat D (Cathepsin D) (P07339 65-412, species assumed): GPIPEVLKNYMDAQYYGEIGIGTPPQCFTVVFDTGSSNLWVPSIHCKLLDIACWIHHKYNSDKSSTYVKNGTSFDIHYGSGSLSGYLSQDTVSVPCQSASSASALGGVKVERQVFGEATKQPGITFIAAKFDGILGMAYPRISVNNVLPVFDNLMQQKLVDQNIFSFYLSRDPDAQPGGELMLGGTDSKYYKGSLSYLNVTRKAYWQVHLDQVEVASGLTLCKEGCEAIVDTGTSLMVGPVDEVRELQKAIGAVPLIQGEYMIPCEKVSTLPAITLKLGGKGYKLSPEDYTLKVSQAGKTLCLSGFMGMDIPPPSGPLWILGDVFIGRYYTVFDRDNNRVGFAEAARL

Structure (SMILES)	IC50 [1] [µM]	IC50 [2] [µM]	Aβ reductions in lumbar CSF (Aβ in lumbar CSF; after oral dosing of 30 or 90 mg)	safety and tolerability (Aβ in lumbar CSF; Ph I)
N#Cc1ccc2c(c1)OCC[C@@H]2Nc1ccc(F)c([C@@]2(C(F)F)N=C(N)O[C@@H]3C[C@@H]32)c1 (mixture of isomers) [Example 383, (R)-4-((3-((1R,5S,6R)-3-amino-5-(difluoromethyl)-2-oxa-4-azabicyclo[4.1.0]hept-3-en-5-yl)-4-fluorophenyl)amino)chroman-7-carbonitrile and (S)-4-((3-((1R,5S,6R)-3-amino-5-(difluoromethyl)-2-oxa-4-azabicyclo[4.1.0]hept-3-en-5-yl)-4-fluorophenyl)amino)chroman-7-carbonitrile]	0.968	206		
N#Cc1cnc2c(c1)CCC[C@@H]2Nc1ccc(F)c([C@@]2(C(F)F)N=C(N)O[C@@H]3C[C@@H]32)c1 (mixture of isomers) [Example 403, (R)-8-((3-((1R,5S,6R)-3-amino-5-(difluoromethyl)-2-oxa-4-azabicyclo[4.1.0]hept-3-en-5-yl)-4-fluorophenyl)amino)-5,6,7,8-tetrahydroquinoline-3-carbonitrile and (S)-8-((3-((1R,5S,6R)-3-amino-5-(difluoromethyl)-2-oxa-4-azabicyclo[4.1.0]hept-3-en-5-yl)-4-fluorophenyl)amino)-5,6,7,8-tetrahydroquinoline-3-carbonitrile]	2.85	469		
C#CCOc1cnc(C(=O)Nc2cc(F)c(Cl)c([C@]3(CF)N=C(N)O[C@H]4C[C@H]43)c2)cn1 (racemic) [Example 140, N-(3-((1R/S,5S/R,6R/S)-3-amino-5-(fluoromethyl)-2-oxa-4-azabicyclo[4.1.0]hept-3-en-5-yl)-4-chloro-5-fluorophenyl)-5-(prop-2-yn-1-yloxy)pyrazine-2-carboxamide]	0.006	86.9		
NC1=N[C@@](c2cc(NC(=O)c3cnc(Cl)cn3)ccc2F)(C(F)F)[C@H]2C[C@H]2O1 [Example 261, N-(3-((1R,5S,6R)-3-amino-5-(difluoromethyl)-2-oxa-4-azabicyclo[4.1.0]hept-3-en-5-yl)-4-fluorophenyl)-5-chloropyrazine-2-carboxamide]	0.037	444		
COc1cc(Cl)cnc1C(=O)Nc1ccc(Cl)c([C@@]2(CF)N=C(N)O[C@@H]3C[C@@H]32)c1 [Example 297, N-(3-((1R,5S,6R)-3-amino-5-(fluoromethyl)-2-oxa-4-azabicyclo[4.1.0]hept-3-en-5-yl)-4-chlorophenyl)-5-chloro-3-methoxypicolinamide]		835		
C[C@@]1(c2cc(NC(=O)c3ccc(Cl)cn3)cnc2F)N=C(N)O[C@H]2C[C@H]21 [Example 333]	0.13	816		
COc1cnc2c(Nc3cc(Cl)c(F)c([C@@]4(CF)N=C(N)O[C@@H]5C[C@@H]54)c3)nccc2n1 [Example 356, (1R,5S,6R)-5-(3-chloro-2-fluoro-5-((2-methoxypyrido[3,4-b]pyrazin-5-yl)amino)phenyl)-5-(fluoromethyl)-2-oxa-4-azabicyclo[4.1.0]hept-3-en-3-amine]	0.0659	725		
N#Cc1cnc2c(c1)CC[C@@H]2Nc1ccc(F)c([C@@]2(C(F)F)N=C(N)O[C@@H]3C[C@@H]32)c1 [Example 404]	0.291			
C[C@@]1(c2cc(-c3cncnc3)c(F)cc2F)CCSC(N)=N1 [LY2811376, (S)-4-(2,4-difluoro-5-pyrimidin-5-yl-phenyl)-4-methyl-5,6-dihydro-4H-[1,3]thiazin-2-ylamine]			Prominent and long-lasting Aβ reductions	safe and well tolerated
